Laboratory results published in ChEMBL document CHEMBL1201862, “PubChem BioAssay data set” (2004).
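Protocol summary: plate cells (96-well), add compound at 5 concentrations, incubate 48 h, interpolate endpoints linearly. GI50 = concentration required for 50% inhibition of growth.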 Active and inactive are the calls of the source. Cut-off read from the data, not from the text of the source: active = GI50 up to about 1.1 µM and inactive = higher.

Legend:
Test in all cases: NCI-60 cell line screen, 48 h
MOLT-4 = tested on: MOLT-4
RPMI-8226 = tested on: RPMI-8226
NCI-H23 = tested on: NCI-H23
RXF 393 = tested on: RXF 393
Malme-3M = tested on: Malme-3M
NCI-H522 = tested on: NCI-H522
Hs-578T = tested on: Hs-578T
MCF7 = tested on: MCF7
NCI/ADR-RES = tested on: NCI/ADR-RES
MDA-N = tested on: MDA-N
HOP-92 = tested on: HOP-92
SN12C = tested on: SN12C
COLO 205 = tested on: COLO 205
UACC-62 = tested on: UACC-62
HCC 2998 = tested on: HCC 2998
MDA-MB-435 = tested on: MDA-MB-435
A549 = tested on: A549
U-251 = tested on: U-251
NCI-H226 = tested on: NCI-H226
LOX IMVI = tested on: LOX IMVI

Measured: GI50

Nc1c(O)c(C(=O)O)cc2ccccc12
inactive: MOLT-4 29.8 µM | RPMI-8226 33.3 µM | NCI-H23 23.3 µM | RXF 393 > 100 µM | Malme-3M 15.3 µM | NCI-H522 17.7 µM | Hs-578T 37 µM | MCF7 11.6 µM | NCI/ADR-RES 32.1 µM | MDA-N 17.9 µM | HOP-92 35 µM | SN12C 38.4 µM | COLO 205 26.1 µM | UACC-62 17 µM | HCC 2998 94 µM | MDA-MB-435 18.8 µM | A549 45.4 µM | U-251 30.3 µM | NCI-H226 30.1 µM | LOX IMVI 10.6 µM

O=C1c2ccccc2C(=O)N1C(=S)c1ccccc1
inactive: MOLT-4 > 100 µM | RPMI-8226 > 100 µM | NCI-H23 > 100 µM | RXF 393 > 100 µM | Malme-3M > 100 µM | NCI-H522 > 100 µM | Hs-578T > 100 µM | MCF7 > 100 µM | NCI/ADR-RES > 100 µM | MDA-N > 100 µM | HOP-92 > 100 µM | SN12C > 100 µM | COLO 205 > 100 µM | UACC-62 > 100 µM | HCC 2998 > 100 µM | MDA-MB-435 > 100 µM | A549 > 100 µM | U-251 > 100 µM | NCI-H226 > 100 µM | LOX IMVI > 100 µM

CC(=O)C1C(=O)C(=O)N(c2ccccc2)C1=O (configuration not stated)
inactive: MOLT-4 > 100 µM | NCI-H23 > 100 µM | RXF 393 > 100 µM | NCI-H522 > 100 µM | Hs-578T > 100 µM | MCF7 > 100 µM | NCI/ADR-RES > 100 µM | MDA-N > 100 µM | HOP-92 > 100 µM | SN12C > 100 µM | COLO 205 > 100 µM | UACC-62 > 100 µM | HCC 2998 > 100 µM | MDA-MB-435 > 100 µM | A549 > 100 µM | U-251 > 100 µM | NCI-H226 > 100 µM | LOX IMVI > 100 µM

c1ccc(-c2cn3c(nc4ccccc43)c(-c3ccccc3)n2)cc1
inactive: MOLT-4 > 100 µM | RPMI-8226 > 100 µM | NCI-H23 55.2 µM | RXF 393 > 38 µM | Malme-3M > 96.2 µM | NCI-H522 35.2 µM | Hs-578T 16.3 µM | MCF7 69.7 µM | NCI/ADR-RES 47.6 µM | MDA-N > 31.6 µM | HOP-92 16.9 µM | SN12C 65.8 µM | COLO 205 > 100 µM | UACC-62 12.4 µM | HCC 2998 > 100 µM | MDA-MB-435 > 87.7 µM | A549 > 68.7 µM | U-251 14.2 µM | NCI-H226 > 60.8 µM | LOX IMVI 81.8 µM

CC(C)C[C@H]1[C@@H](OCc2ccccc2)COS(=O)(=O)N1[C@H](C)c1ccccc1
inactive: MOLT-4 3.8 µM | RPMI-8226 4.05 µM | NCI-H23 6.98 µM | RXF 393 29.1 µM | Malme-3M > 27.2 µM | NCI-H522 7.83 µM | Hs-578T > 100 µM | MCF7 21.7 µM | NCI/ADR-RES 52.2 µM | MDA-N > 78.5 µM | HOP-92 > 100 µM | SN12C 75.3 µM | COLO 205 > 72.6 µM | UACC-62 > 100 µM | HCC 2998 > 100 µM | MDA-MB-435 49.7 µM | A549 29.5 µM | U-251 15.2 µM | NCI-H226 > 92 µM | LOX IMVI 13.4 µM

CCOC(=O)C1=C(C)C2C=C(c3cccs3)CC(c3ccc(Cl)cc3)=C2OC1=O (configuration not stated)
inactive: MOLT-4 6.07 µM | RPMI-8226 7.59 µM | NCI-H23 71.1 µM | RXF 393 84.5 µM | NCI-H522 19.2 µM | Hs-578T > 100 µM | MCF7 14.1 µM | NCI/ADR-RES 30.5 µM | MDA-N 37.9 µM | HOP-92 > 100 µM | SN12C 44.3 µM | COLO 205 40.9 µM | UACC-62 45.8 µM | HCC 2998 22.5 µM | MDA-MB-435 42.4 µM | A549 > 100 µM | U-251 33.3 µM | NCI-H226 21 µM | LOX IMVI 16.9 µM

Cc1cc(=O)nc(Sc2ccc([N+](=O)[O-])cc2[N+](=O)[O-])[nH]1
inactive: MOLT-4 7.59 µM | RPMI-8226 3.9 µM | NCI-H23 18.3 µM | RXF 393 12.9 µM | Malme-3M 17.3 µM | NCI-H522 7.23 µM | Hs-578T 37.8 µM | MCF7 14.4 µM | NCI/ADR-RES 30.4 µM | MDA-N 16.7 µM | HOP-92 6.64 µM | SN12C 10.8 µM | COLO 205 4.65 µM | UACC-62 17.3 µM | HCC 2998 16.3 µM | MDA-MB-435 25.6 µM | A549 18.5 µM | U-251 20.7 µM | NCI-H226 19.7 µM | LOX IMVI 2.81 µM
